Tests used:
Test in all cases: relative viability (nuclei count vs DMSO), 5 days (fraction); higher = more cells survive
BEN = system: BEN
Summary of the method: (§1)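 Relative viability is defined as nuclei in treated wells over nuclei in vehicle wells. Duplicate plates were run and medians reported. Lung cancer cell lines in 1536-well plates were dosed by pin tool one day after seeding, with one drug or with a fixed anchor-drug dose plus five library-drug doses (not always all listed) in √10 steps, and nuclei were counted after 5 days.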

CAL-12T = system: CAL-12T
Summary of the method: as §1

COR-L23 = system: COR-L23
Summary of the method: as §1

HCC-366 = system: HCC-366
Summary of the method: as §1

LOU-NH91 = system: LOU-NH91
Summary of the method: as §1

LU99A = system: LU99A
Summary of the method: as §1

NCI-H1355 = system: NCI-H1355
Summary of the method: as §1

NCI-H1437 = system: NCI-H1437
Summary of the method: as §1

NCI-H1563 = system: NCI-H1563
Summary of the method: as §1

NCI-H1650 = system: NCI-H1650
Summary of the method: as §1

NCI-H1651 = system: NCI-H1651
Summary of the method: as §1

NCI-H1734 = system: NCI-H1734
Summary of the method: as §1

NCI-H1793 = system: NCI-H1793
Summary of the method: as §1

NCI-H1975 = system: NCI-H1975
Summary of the method: as §1

NCI-H2023 = system: NCI-H2023
Summary of the method: as §1

NCI-H2085 = system: NCI-H2085
Summary of the method: as §1

NCI-H2342 = system: NCI-H2342
Summary of the method: as §1

NCI-H358 = system: NCI-H358
Summary of the method: as §1

NCI-H441 = system: NCI-H441
Summary of the method: as §1

NCI-H460 = system: NCI-H460
Summary of the method: as §1

NCI-H838 = system: NCI-H838
Summary of the method: as §1

SK-LU-1 = system: SK-LU-1
Summary of the method: as §1

CCN(CC)CCCCNc1ncc2cc(-c3cc(OC)cc(OC)c3)c(NC(=O)NC(C)(C)C)nc2n1 + Cc1nc(Nc2ncc(C(=O)Nc3c(C)cccc3Cl)s2)cc(N2CCN(CCO)CC2)n1 [Dasatinib] (partner 0.075 µM)
relative viability (BEN; first compound 0.01 µM): 0.298
relative viability (BEN; first compound 0.03162 µM): 0.282
relative viability (BEN; first compound 0.1 µM): 0.359
relative viability (BEN; first compound 0.3162 µM): 0.353
relative viability (BEN; first compound 1 µM): 0.26
relative viability (CAL-12T; first compound 0.01 µM): 0.389
relative viability (CAL-12T; first compound 0.03162 µM): 0.525
relative viability (CAL-12T; first compound 0.1 µM): 0.435
relative viability (CAL-12T; first compound 0.3162 µM): 0.371
relative viability (CAL-12T; first compound 1 µM): 0.417
relative viability (COR-L23; first compound 0.01 µM): 0.527
relative viability (COR-L23; first compound 0.03162 µM): 0.549
relative viability (COR-L23; first compound 0.1 µM): 0.546
relative viability (COR-L23; first compound 0.3162 µM): 0.566
relative viability (COR-L23; first compound 1 µM): 0.608
relative viability (HCC-366; first compound 0.01 µM): 0.601
relative viability (HCC-366; first compound 0.03162 µM): 0.686
relative viability (HCC-366; first compound 0.1 µM): 0.942
relative viability (HCC-366; first compound 0.3162 µM): 0.659
relative viability (HCC-366; first compound 1 µM): 0.613
relative viability (LOU-NH91; first compound 0.01 µM): 0.51
relative viability (LOU-NH91; first compound 0.03162 µM): 0.521
relative viability (LOU-NH91; first compound 0.1 µM): 0.629
relative viability (LOU-NH91; first compound 0.3162 µM): 0.718
relative viability (LOU-NH91; first compound 1 µM): 0.57
relative viability (LU99A; first compound 0.01 µM): 0.508
relative viability (LU99A; first compound 0.03162 µM): 0.611
relative viability (LU99A; first compound 0.1 µM): 0.712
relative viability (LU99A; first compound 0.3162 µM): 0.499
relative viability (LU99A; first compound 1 µM): 0.445
relative viability (NCI-H1355; first compound 0.01 µM): 0.775
relative viability (NCI-H1355; first compound 0.03162 µM): 0.751
relative viability (NCI-H1355; first compound 0.1 µM): 0.746
relative viability (NCI-H1355; first compound 0.3162 µM): 0.775
relative viability (NCI-H1355; first compound 1 µM): 0.663
relative viability (NCI-H1437; first compound 0.01 µM): 0.366
relative viability (NCI-H1437; first compound 0.03162 µM): 0.504
relative viability (NCI-H1437; first compound 0.1 µM): 0.419
relative viability (NCI-H1437; first compound 0.3162 µM): 0.447
relative viability (NCI-H1437; first compound 1 µM): 0.335
relative viability (NCI-H1563; first compound 0.01 µM): 0.477
relative viability (NCI-H1563; first compound 0.03162 µM): 0.412
relative viability (NCI-H1563; first compound 0.1 µM): 0.474
relative viability (NCI-H1563; first compound 0.3162 µM): 0.478
relative viability (NCI-H1563; first compound 1 µM): 0.503
relative viability (NCI-H1650; first compound 0.01 µM): 0.319
relative viability (NCI-H1650; first compound 0.03162 µM): 0.286
relative viability (NCI-H1650; first compound 0.1 µM): 0.375
relative viability (NCI-H1650; first compound 0.3162 µM): 0.21
relative viability (NCI-H1650; first compound 1 µM): 0.191
relative viability (NCI-H1651; first compound 0.01 µM): 0.465
relative viability (NCI-H1651; first compound 0.03162 µM): 0.448
relative viability (NCI-H1651; first compound 0.1 µM): 0.486
relative viability (NCI-H1651; first compound 0.3162 µM): 0.47
relative viability (NCI-H1651; first compound 1 µM): 0.288
relative viability (NCI-H1734; first compound 0.01 µM): 0.508
relative viability (NCI-H1734; first compound 0.03162 µM): 0.507
relative viability (NCI-H1734; first compound 0.1 µM): 0.521
relative viability (NCI-H1734; first compound 0.3162 µM): 0.543
relative viability (NCI-H1734; first compound 1 µM): 0.436
relative viability (NCI-H1793; first compound 0.01 µM): 0.369
relative viability (NCI-H1793; first compound 0.03162 µM): 0.312
relative viability (NCI-H1793; first compound 0.1 µM): 0.372
relative viability (NCI-H1793; first compound 0.3162 µM): 0.283
relative viability (NCI-H1793; first compound 1 µM): 0.271
relative viability (NCI-H1975; first compound 0.01 µM): 0.369
relative viability (NCI-H1975; first compound 0.03162 µM): 0.403
relative viability (NCI-H1975; first compound 0.1 µM): 0.458
relative viability (NCI-H1975; first compound 0.3162 µM): 0.452
relative viability (NCI-H1975; first compound 1 µM): 0.313
relative viability (NCI-H2023; first compound 0.01 µM): 0.548
relative viability (NCI-H2023; first compound 0.03162 µM): 0.675
relative viability (NCI-H2023; first compound 0.1 µM): 0.657
relative viability (NCI-H2023; first compound 0.3162 µM): 0.571
relative viability (NCI-H2023; first compound 1 µM): 0.493
relative viability (NCI-H2085; first compound 0.01 µM): 0.251
relative viability (NCI-H2085; first compound 0.03162 µM): 0.181
relative viability (NCI-H2085; first compound 0.1 µM): 0.278
relative viability (NCI-H2085; first compound 0.3162 µM): 0.231
relative viability (NCI-H2085; first compound 1 µM): 0.216
relative viability (NCI-H2342; first compound 0.01 µM): 0.296
relative viability (NCI-H2342; first compound 0.03162 µM): 0.345
relative viability (NCI-H2342; first compound 0.1 µM): 0.321
relative viability (NCI-H2342; first compound 0.3162 µM): 0.332
relative viability (NCI-H2342; first compound 1 µM): 0.31
relative viability (NCI-H358; first compound 0.01 µM): 0.169
relative viability (NCI-H358; first compound 0.03162 µM): 0.127
relative viability (NCI-H358; first compound 0.1 µM): 0.157
relative viability (NCI-H358; first compound 0.3162 µM): 0.147
relative viability (NCI-H358; first compound 1 µM): 0.198
relative viability (NCI-H441; first compound 0.01 µM): 0.68
relative viability (NCI-H441; first compound 0.03162 µM): 0.572
relative viability (NCI-H441; first compound 0.1 µM): 0.604
relative viability (NCI-H441; first compound 0.3162 µM): 0.775
relative viability (NCI-H441; first compound 1 µM): 0.554
relative viability (NCI-H460; first compound 0.01 µM): 0.538
relative viability (NCI-H460; first compound 0.03162 µM): 0.464
relative viability (NCI-H460; first compound 0.1 µM): 0.81
relative viability (NCI-H460; first compound 0.3162 µM): 0.709
relative viability (NCI-H460; first compound 1 µM): 0.395
relative viability (NCI-H838; first compound 0.01 µM): 0.259
relative viability (NCI-H838; first compound 0.03162 µM): 0.305
relative viability (NCI-H838; first compound 0.1 µM): 0.307
relative viability (NCI-H838; first compound 0.3162 µM): 0.305
relative viability (NCI-H838; first compound 1 µM): 0.246
relative viability (SK-LU-1; first compound 0.01 µM): 0.158
relative viability (SK-LU-1; first compound 0.03162 µM): 0.163
relative viability (SK-LU-1; first compound 0.1 µM): 0.177
relative viability (SK-LU-1; first compound 0.3162 µM): 0.194
relative viability (SK-LU-1; first compound 1 µM): 0.13

Source: the supplement of paper PMC10307832
